The results in this text go back to patent US12678507B2, “Protein tyrosine kinase 6 (PTK6) degradation / disruption compounds and methods of use” (Icahn School of Medicine at Mount Sinai, priority 2018, dated 2026).

The target in this assay is T1, PTK6 (Homo sapiens, UniProt Q13882).
T1 construct: endogenous in cells; host or cells: MDA-MB231 cells (ATCC)
T1 sequence (Q13882 whole entry): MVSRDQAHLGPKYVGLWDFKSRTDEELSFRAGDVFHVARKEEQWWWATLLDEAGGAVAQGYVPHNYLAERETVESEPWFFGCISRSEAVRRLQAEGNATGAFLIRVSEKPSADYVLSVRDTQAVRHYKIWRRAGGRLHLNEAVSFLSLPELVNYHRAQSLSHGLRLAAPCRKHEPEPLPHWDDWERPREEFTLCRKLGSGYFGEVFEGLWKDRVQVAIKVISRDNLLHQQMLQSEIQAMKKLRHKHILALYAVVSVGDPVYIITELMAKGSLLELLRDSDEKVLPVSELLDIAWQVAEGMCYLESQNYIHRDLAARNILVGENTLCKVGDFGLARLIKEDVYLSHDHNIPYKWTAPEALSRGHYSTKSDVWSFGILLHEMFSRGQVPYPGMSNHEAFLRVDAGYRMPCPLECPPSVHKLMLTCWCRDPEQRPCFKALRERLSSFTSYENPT
Briefly: Western blot of PTK6 protein levels in MDA-MB231 cells. The conditions noted are these: MDA-231 (MDA-MB231) cells, 500 nM, 24 hours, Western blot (FIGS. 3-5). It counts as cell-based. The protocol:
FIGS. 2-5. Effects of exemplary compounds on reducing PTK6 protein levels in breast cancer cells. Triple negative MDA-MB231 cells were treated for 24 hours with 500 nM, 2 uM or 2.5 uM of test compound and lysed. Proteins were resolved by SDS/PAGE and immunoblotted with antibody to PTK6 (Santa Cruz, Cell Signaling) or GAPDH loading control (Cell Signaling).
FIG. 13. PTK6 degraders suppress PTK6 expression. MDA-MB231 cells were treated with compounds (500 nM or 1 uM) for 24 hours in monolayer cultures. Cells were lysed and lysates were probed with anti-PTK6 antibody.
MDA-MB231 cells were treated with DMSO or indicated compounds at 2.5 uM, 2 uM or 500 nM for 24 hours.
MDA-MB231 cells were treated with compounds (500 nM or 1 uM) for 24 hours in monolayer cultures. Cells were lysed and lysates were probed with anti-PTK6 antibody.
Cells were lysed in 1% NP-40 lysis buffer containing NaF, Na3VO4, Leupeptin, PMSF, aprotinin, and phosphatase inhibitor (PhosSTOP, Roche) as described previously (Irie et al., 2010). Cleared cell lysates were stored at −80° C. and were analyzed by western analysis as described previously (Irie et al., 2010).
Background: In western blotting, separated proteins are transferred to a membrane and probed.
In the case of `Cc1ncsc1-c1ccc(CNC(=O)[C@@H]2C[C@@H](O)CN2C(=O)[C@@H](NC(=O)CCCCCCCCCCNC(=O)CN2CCN(C(=O)c3ccc(Nc4nc(C5CC5)cn5c(-c6cn[nH]c6)cnc45)c(F)c3)CC2)C(C)(C)C)cc1` [YX39-107, (2S,4R)-1-((S)-2-(11-(2-(4-(4-((6-cyclopropyl-3-(1H-pyrazol-4-yl)imidazo[1,2-a]pyrazin-8-yl)amino)-3-fluorobenzoyl)piperazin-1-yl)acetamido)undecanamido)-3,3-dimethylbutanoyl)-4-hydroxy-N-(4-(4-methylthiazol-5-yl)benzyl)pyrrolidine-2-carboxamide], the “reducing PTK6 protein levels / suppress PTK6 expression” value was “effective in reducing PTK6 protein levels”.
The value for `O=C1CCC(N2C(=O)c3cccc(NCCOCCOCCC(=O)N4CCN(C(=O)c5ccc(Nc6nc(C7CC7)cn7c(-c8cn[nH]c8)cnc67)c(F)c5)CC4)c3C2=O)C(=O)N1` (stereo not shown) [YX79-36, 4-((2-(2-(3-(4-(4-((6-cyclopropyl-3-(1H-pyrazol-4-yl)imidazo[1,2-a]pyrazin-8-yl)amino)-3-fluorobenzoyl)piperazin-1-yl)-3-oxopropoxy)ethoxy)ethyl)amino)-2-(2,6-dioxopiperidin-3-yl)isoindoline-1,3-dione] was “potently suppress PTK6 expression”; that for `Cc1ncsc1-c1ccc(CNC(=O)[C@@H]2C[C@@H](O)CN2C(=O)[C@@H](NC(=O)CCCCNC(=O)CN2CCN(C(=O)c3ccc(Nc4nc(C5CC5)cn5c(-c6cn[nH]c6)cnc45)c(F)c3)CC2)C(C)(C)C)cc1` [YX39-101, (2S,4R)-1-((S)-2-(5-(2-(4-(4-((6-cyclopropyl-3-(1H-pyrazol-4-yl)imidazo[1,2-a]pyrazin-8-yl)amino)-3-fluorobenzoyl)piperazin-1-yl)acetamido)pentanamido)-3,3-dimethylbutanoyl)-4-hydroxy-N-(4-(4-methylthiazol-5-yl)benzyl)pyrrolidine-2-carboxamide] was “effective in reducing PTK6 protein levels”.
The value for `O=C1CCC(N2C(=O)c3cccc(NCCOCCOCCOCCC(=O)N4CCN(C(=O)c5ccc(Nc6nc(C7CC7)cn7c(-c8cn[nH]c8)cnc67)c(F)c5)CC4)c3C2=O)C(=O)N1` (stereo not shown) [YX79-37, 4-((2-(2-(2-(3-(4-(4-((6-cyclopropyl-3-(1H-pyrazol-4-yl)imidazo[1,2-a]pyrazin-8-yl)amino)-3-fluorobenzoyl)piperazin-1-yl)-3-oxopropoxy)ethoxy)ethoxy)ethyl)amino)-2-(2,6-dioxopiperidin-3-yl)isoindoline-1,3-dione] was “potently suppress PTK6 expression”.
As for `Cc1ncsc1-c1ccc(CNC(=O)[C@@H]2C[C@@H](O)CN2C(=O)[C@@H](NC(=O)CCCCCCCNC(=O)CN2CCN(C(=O)c3ccc(Nc4nc(C5CC5)cn5c(-c6cn[nH]c6)cnc45)c(F)c3)CC2)C(C)(C)C)cc1` [YX39-104, (2S,4R)-1-((S)-2-(8-(2-(4-(4-((6-cyclopropyl-3-(1H-pyrazol-4-yl)imidazo[1,2-a]pyrazin-8-yl)amino)-3-fluorobenzoyl)piperazin-1-yl)acetamido)octanamido)-3,3-dimethylbutanoyl)-4-hydroxy-N-(4-(4-methylthiazol-5-yl)benzyl)pyrrolidine-2-carboxamide], the “reducing PTK6 protein levels / suppress PTK6 expression” value is on record as “effective in reducing PTK6 protein levels”.
The value for `Cc1ncsc1-c1ccc(CNC(=O)[C@@H]2C[C@@H](O)CN2C(=O)[C@@H](NC(=O)CCCCCCCCCNC(=O)CN2CCN(C(=O)c3ccc(Nc4nc(C5CC5)cn5c(-c6cn[nH]c6)cnc45)c(F)c3)CC2)C(C)(C)C)cc1` [YX39-106, (2S,4R)-1-((S)-2-(10-(2-(4-(4-((6-cyclopropyl-3-(1H-pyrazol-4-yl)imidazo[1,2-a]pyrazin-8-yl)amino)-3-fluorobenzoyl)piperazin-1-yl)acetamido)decanamido)-3,3-dimethylbutanoyl)-4-hydroxy-N-(4-(4-methylthiazol-5-yl)benzyl)pyrrolidine-2-carboxamide] was “effective in reducing PTK6 protein levels”; that for `Cc1ncsc1-c1ccc(CNC(=O)[C@@H]2C[C@@H](O)CN2C(=O)[C@@H](NC(=O)COCCOCC(=O)N2CCN(C(=O)c3ccc(Nc4nc(C5CC5)cn5c(-c6cn[nH]c6)cnc45)c(F)c3)CC2)C(C)(C)C)cc1` [YX79-41, (2S,4R)-1-((S)-2-(2-(2-(2-(4-(4-((6-cyclopropyl-3-(1H-pyrazol-4-yl)imidazo[1,2-a]pyrazin-8-yl)amino)-3-fluorobenzoyl)piperazin-1-yl)-2-oxoethoxy)ethoxy)acetamido)-3,3-dimethylbutanoyl)-4-hydroxy-N-(4-(4-methylthiazol-5-yl)benzyl)pyrrolidine-2-carboxamide] was “potently suppress PTK6 expression”.
